Experimental data as given in ChEMBL document CHEMBL1201862, “PubChem BioAssay data set” (2004).
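Assay format: 96-well plates, 48-hour exposure. Abbreviation: GI50, concentration required for 50% inhibition of growth.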 Activity calls are given as the source filed them. Cut-off read from the data, not from the text of the source: active = GI50 up to about 1.1 µM and inactive = higher.

How the values were obtained:
Experiment in all cases: inhibition of tumour cell growth, NCI panel, 48 h
786-0 = tested on: 786-0
A498 = tested on: A498
A549 = tested on: A549
ACHN = tested on: ACHN
CAKI-1 = tested on: CAKI-1
CCRF-CEM = tested on: CCRF-CEM
COLO 205 = tested on: COLO 205
DLD-1 = tested on: DLD-1
DMS-114 = tested on: DMS-114
DMS-273 = tested on: DMS-273
EKVX = tested on: EKVX
HCC 2998 = tested on: HCC 2998
HCT-116 = tested on: HCT-116
HCT-15 = tested on: HCT-15
HL-60 = tested on: HL-60
HOP-62 = tested on: HOP-62
HOP-92 = tested on: HOP-92
HT-29 = tested on: HT-29
IGROV-1 = tested on: IGROV-1
K562 = tested on: K562
KM-20L2 = tested on: KM-20L2
KM12 = tested on: KM12
LOX IMVI = tested on: LOX IMVI
LXFL 529 = tested on: LXFL 529
M14 = tested on: M14
M19-MEL = tested on: M19-MEL
MOLT-4 = tested on: MOLT-4
Malme-3M = tested on: Malme-3M
NCI-H226 = tested on: NCI-H226
NCI-H23 = tested on: NCI-H23
NCI-H460 = tested on: NCI-H460
NCI-H522 = tested on: NCI-H522
OVCAR-3 = tested on: OVCAR-3
OVCAR-4 = tested on: OVCAR-4
OVCAR-5 = tested on: OVCAR-5
OVCAR-8 = tested on: OVCAR-8
RPMI-8226 = tested on: RPMI-8226
RXF 393 = tested on: RXF 393
SF-268 = tested on: SF-268
SF-295 = tested on: SF-295
SF-539 = tested on: SF-539
SK-MEL-28 = tested on: SK-MEL-28
SK-MEL-2 = tested on: SK-MEL-2
SK-MEL-5 = tested on: SK-MEL-5
SK-OV-3 = tested on: SK-OV-3
SN12C = tested on: SN12C
SNB-19 = tested on: SNB-19
SNB-75 = tested on: SNB-75
SNB-78 = tested on: SNB-78
SR = tested on: SR
SW-620 = tested on: SW-620
TK-10 = tested on: TK-10
U-251 = tested on: U-251
UACC-257 = tested on: UACC-257
UO-31 = tested on: UO-31
XF498 = tested on: XF498

## CCOC1C(Br)Cn2c(=O)c3cc4ccccc4cc3c(=O)n2C1C (stereo unspecified)
786-0
  GI50: > 100 µM (inactive)
A498
  GI50: 12.2 µM (inactive)
A549
  GI50: 67.3 µM (inactive)
ACHN
  GI50: > 100 µM (inactive)
CAKI-1
  GI50: 55.1 µM (inactive)
CCRF-CEM
  GI50: 50.1 µM (inactive)
COLO 205
  GI50: 56.6 µM (inactive)
DLD-1
  GI50: 54.3 µM (inactive)
DMS-114
  GI50: 44.8 µM (inactive)
DMS-273
  GI50: 40.6 µM (inactive)
EKVX
  GI50: 47.6 µM (inactive)
HCC 2998
  GI50: 50.6 µM (inactive)
HCT-116
  GI50: 58.9 µM (inactive)
HCT-15
  GI50: 43.6 µM
HL-60
  GI50: 44.9 µM (inactive)
HOP-62
  GI50: > 100 µM (inactive)
HOP-92
  GI50: 97.7 µM (inactive)
HT-29
  GI50: 27.5 µM (inactive)
IGROV-1
  GI50: > 100 µM (inactive)
K562
  GI50: 37.6 µM (inactive)
KM-20L2
  GI50: 68.9 µM (inactive)
KM12
  GI50: > 100 µM (inactive)
LOX IMVI
  GI50: 73.5 µM (inactive)
LXFL 529
  GI50: 35.8 µM (inactive)
M14
  GI50: 42.5 µM (inactive)
M19-MEL
  GI50: 55.6 µM (inactive)
MOLT-4
  GI50: 29.4 µM (inactive)
Malme-3M
  GI50: > 100 µM (inactive)
NCI-H226
  GI50: > 100 µM (inactive)
NCI-H23
  GI50: > 100 µM (inactive)
NCI-H460
  GI50: 40.3 µM (inactive)
NCI-H522
  GI50: 1.67 µM (inactive)
OVCAR-3
  GI50: > 100 µM (inactive)
OVCAR-4
  GI50: > 100 µM (inactive)
OVCAR-5
  GI50: > 100 µM (inactive)
OVCAR-8
  GI50: > 100 µM (inactive)
RPMI-8226
  GI50: 33.8 µM (inactive)
RXF 393
  GI50: > 100 µM (inactive)
SF-268
  GI50: > 100 µM (inactive)
SF-295
  GI50: 71.8 µM (inactive)
SF-539
  GI50: > 100 µM (inactive)
SK-MEL-28
  GI50: > 100 µM (inactive)
SK-MEL-2
  GI50: > 100 µM (inactive)
SK-MEL-5
  GI50: 31.1 µM (inactive)
SK-OV-3
  GI50: > 100 µM (inactive)
SN12C
  GI50: > 100 µM (inactive)
SNB-19
  GI50: > 100 µM (inactive)
SNB-75
  GI50: 39.4 µM (inactive)
SNB-78
  GI50: > 100 µM (inactive)
SR
  GI50: 34 µM (inactive)
SW-620
  GI50: 91.8 µM (inactive)
TK-10
  GI50: > 100 µM (inactive)
U-251
  GI50: > 100 µM (inactive)
UACC-257
  GI50: 60.4 µM (inactive)
UO-31
  GI50: 78.5 µM (inactive)
XF498
  GI50: 31 µM (inactive)
